# Columns and labels:
# Type in all cases: in vivo
# [1] = tested on: upland rice (Oryza sp., var. Tebonnet, RICE); assay: Post-emerge test, crop safety; conditions: post-emerge, 14 days after application, rating scale 0-100
# Summary of the method: (§1)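 Each test used a mechanized track sprayer delivering 187 l/ha of acetone solution at 15–1000 g ai/ha. Post-emerge foliage at 2–3 leaves was treated with added 0.25% v/v non-ionic surfactant and bottom-watered only. Injury was assessed on day 14, where 100 means total kill.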
# [2] = tested on: field corn (Zea mays L., var. Dekalb 535, CORN); assay: Post-emerge test, crop safety; conditions: post-emerge, 14 days after application, rating scale 0-100
# Summary of the method: as §1
# [3] = tested on: velvetleaf (Abutilon theophrasti, ABUTH); assay: Pre-emerge test, greenhouse herbicide activity screening; conditions: rated 14 days after application, 0 = no damage, 100 = complete death
# Summary of the method: (§2)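 Plants grown in 10 cm pots of sandy loam mix received acetone-dissolved compounds through a moving flat-fan nozzle. Doses ranged from 15 to 1000 g ai/ha. Pre-emerge pots were seeded one day earlier, post-emerge pots 8–21 days earlier. Fourteen days on, each pot was graded 0–100 for damage.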
# [4] = tested on: common ragweed (Ambrosia artemisizfolia L., AMBEL); assay: as above; conditions: rated 14 days after application, 0 = no damage, 100 = complete death
# Summary of the method: as §2
# [5] = tested on: green foxtail (Setaria viridis, SETVI); assay: as above; conditions: rated 14 days after application, 0 = no damage, 100 = complete death
# Summary of the method: as §2
# [6] = tested on: johnsongrass (Sorghum halepense, SORHA); assay: as above; conditions: rated 14 days after application, 0 = no damage, 100 = complete death
# Summary of the method: as §2
# [7] = tested on: large crabgrass (Digitaria sanguinalis, DIGSA); assay: as above; conditions: rated 14 days after application, 0 = no damage, 100 = complete death
# Summary of the method: as §2
# [8] = tested on: lambsquarters (Chenopodium album, CHEAL); assay: as above; conditions: rated 14 days after application, 0 = no damage, 100 = complete death
# Summary of the method: as §2
# [9] = tested on: sicklepod (Cassia obtusifolia, CASOB); assay: as above; conditions: rated 14 days after application, 0 = no damage, 100 = complete death
# Summary of the method: as §2
# [10] = tested on: ivyleaf morningglory (Ipomoea hederacea, IPOHE); assay: as above; conditions: rated 14 days after application, 0 = no damage, 100 = complete death
# Summary of the method: as §2
# [11] = tested on: barnyardgrass (Echinochloa crus-galli, ECHCG); assay: as above; conditions: rated 14 days after application, 0 = no damage, 100 = complete death
# Summary of the method: as §2
# [12] = tested on: redroot pigweed (Amaranthus retroflexus, AMARE); assay: as above; conditions: rated 14 days after application, 0 = no damage, 100 = complete death
# Summary of the method: (§3)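 Compounds in acetone were track-sprayed at 187 l/ha, 15–1000 g ai/ha, onto sandy loam pots. Pre-emerge seeds were sown one day before spraying, with surface watering afterwards. Post-emerge plants were at the 2–3 leaf stage and sprayed with 0.25% v/v non-ionic surfactant. Injury was rated 0–100 at 14 days.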
# [13] = tested on: velvetleaf (Abutilon theophrasti, ABUTH); assay: Post-emerge test, greenhouse herbicide activity screening; conditions: post-emerge, 14 days after application, rating scale 0-100
# Summary of the method: (§4)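 Herbicidal damage is scored 0 (none) to 100 (complete plant death) two weeks after a simulated field spray. Rates span 15–1000 g ai/ha, delivered in acetone at 187 l/ha. For post-emergence treatments, plants have 2–3 leaves and the spray carries 0.25% v/v non-ionic surfactant.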
# [14] = tested on: common ragweed (Ambrosia artemisizfolia L., AMBEL); assay: as above; conditions: post-emerge, 14 days after application, rating scale 0-100
# Summary of the method: as §4
# [15] = tested on: green foxtail (Setaria viridis, SETVI); assay: as above; conditions: post-emerge, 14 days after application, rating scale 0-100
# Summary of the method: as §4
# [16] = tested on: johnsongrass (Sorghum halepense, SORHA); assay: as above; conditions: post-emerge, 14 days after application, rating scale 0-100
# Summary of the method: as §4
# [17] = tested on: redroot pigweed (Amaranthus retroflexus, AMARE); assay: as above; conditions: post-emerge, 14 days after application, rating scale 0-100
# Summary of the method: as §4
# [18] = tested on: large crabgrass (Digitaria sanguinalis, DIGSA); assay: as above; conditions: post-emerge, 14 days after application, rating scale 0-100
# Summary of the method: as §4
# [19] = tested on: lambsquarters (Chenopodium album, CHEAL); assay: as above; conditions: post-emerge, 14 days after application, rating scale 0-100
# Summary of the method: as §4
# [20] = tested on: sicklepod (Cassia obtusifolia, CASOB); assay: as above; conditions: post-emerge, 14 days after application, rating scale 0-100
# Summary of the method: as §4
# [21] = tested on: ivyleaf morningglory (Ipomoea hederacea, IPOHE); assay: as above; conditions: post-emerge, 14 days after application, rating scale 0-100
# Summary of the method: as §4
# [22] = tested on: barnyardgrass (Echinochloa crus-galli, ECHCG); assay: as above; conditions: post-emerge, 14 days after application, rating scale 0-100
# Summary of the method: as §4
# [23] = tested on: upland rice (Oryza sp., var. Tebonnet, RICE); assay: Pre-emerge test, crop safety; conditions: rated 14 days after application, 0 = no damage, 100 = complete death
# Summary of the method: as §3
# [24] = tested on: field corn (Zea mays L., var. Dekalb 535, CORN); assay: Pre-emerge test, crop safety; conditions: rated 14 days after application, 0 = no damage, 100 = complete death
# Summary of the method: as §3
structure (smiles),measurement,setting,value
COc1c(Cl)cc(F)c(-n2c(=O)cc(C(F)(F)F)n(C)c2=O)c1NC(=O)c1cccc(F)c1F [2-41],phytotoxicity rating RICE,[1]; 63 g ai/ha,10
same,phytotoxicity rating RICE,[1]; 250 g ai/ha,70
same,phytotoxicity rating CORN,[2]; 63 g ai/ha,15
same,phytotoxicity rating CORN,[2]; 250 g ai/ha,80
same,"Pre-emerge Herbicidal Activity, phytotoxicity rating (0-100), ABUTH",[3]; 63 g ai/ha,100
same,"Pre-emerge Herbicidal Activity, phytotoxicity rating (0-100), ABUTH",[3]; 250 g ai/ha,100
same,"Pre-emerge Herbicidal Activity, phytotoxicity rating (0-100), AMBEL",[4]; 63 g ai/ha,100
same,"Pre-emerge Herbicidal Activity, phytotoxicity rating (0-100), AMBEL",[4]; 250 g ai/ha,100
same,"Pre-emerge Herbicidal Activity, phytotoxicity rating (0-100), SETVI",[5]; 63 g ai/ha,95
same,"Pre-emerge Herbicidal Activity, phytotoxicity rating (0-100), SETVI",[5]; 250 g ai/ha,100
same,"Pre-emerge Herbicidal Activity, phytotoxicity rating (0-100), SORHA",[6]; 63 g ai/ha,30
same,"Pre-emerge Herbicidal Activity, phytotoxicity rating (0-100), SORHA",[6]; 250 g ai/ha,100
same,"Pre-emerge Herbicidal Activity, phytotoxicity rating (0-100), DIGSA",[7]; 63 g ai/ha,70
same,"Pre-emerge Herbicidal Activity, phytotoxicity rating (0-100), DIGSA",[7]; 250 g ai/ha,100
same,"Pre-emerge Herbicidal Activity, phytotoxicity rating (0-100), CHEAL",[8]; 63 g ai/ha,100
same,"Pre-emerge Herbicidal Activity, phytotoxicity rating (0-100), CHEAL",[8]; 250 g ai/ha,100
same,"Pre-emerge Herbicidal Activity, phytotoxicity rating (0-100), CASOB",[9]; 63 g ai/ha,80
same,"Pre-emerge Herbicidal Activity, phytotoxicity rating (0-100), CASOB",[9]; 250 g ai/ha,100
same,"Pre-emerge Herbicidal Activity, phytotoxicity rating (0-100), IPOHE",[10]; 63 g ai/ha,90
same,"Pre-emerge Herbicidal Activity, phytotoxicity rating (0-100), IPOHE",[10]; 250 g ai/ha,100
same,"Pre-emerge Herbicidal Activity, phytotoxicity rating (0-100), ECHCG",[11]; 63 g ai/ha,50
same,"Pre-emerge Herbicidal Activity, phytotoxicity rating (0-100), ECHCG",[11]; 250 g ai/ha,100
same,"Pre-emerge Herbicidal Activity, phytotoxicity rating (0-100), AMARE",[12]; 63 g ai/ha,100
same,"Pre-emerge Herbicidal Activity, phytotoxicity rating (0-100), AMARE",[12]; 250 g ai/ha,100
same,phytotoxicity rating ABUTH,[13]; 63 g ai/ha,100
same,phytotoxicity rating ABUTH,[13]; 250 g ai/ha,100
same,phytotoxicity rating AMBEL,[14]; 63 g ai/ha,50
same,phytotoxicity rating AMBEL,[14]; 250 g ai/ha,95
same,phytotoxicity rating SETVI,[15]; 63 g ai/ha,20
same,phytotoxicity rating SETVI,[15]; 250 g ai/ha,30
same,phytotoxicity rating SORHA,[16]; 63 g ai/ha,0
same,phytotoxicity rating SORHA,[16]; 250 g ai/ha,70
same,phytotoxicity rating AMARE,[17]; 63 g ai/ha,95
same,phytotoxicity rating AMARE,[17]; 250 g ai/ha,100
same,phytotoxicity rating DIGSA,[18]; 63 g ai/ha,0
same,phytotoxicity rating DIGSA,[18]; 250 g ai/ha,20
same,phytotoxicity rating CHEAL,[19]; 63 g ai/ha,95
same,phytotoxicity rating CHEAL,[19]; 250 g ai/ha,100
same,phytotoxicity rating CASOB,[20]; 63 g ai/ha,60
same,phytotoxicity rating CASOB,[20]; 250 g ai/ha,95
same,phytotoxicity rating IPOHE,[21]; 63 g ai/ha,100
same,phytotoxicity rating IPOHE,[21]; 250 g ai/ha,100
same,phytotoxicity rating ECHCG,[22]; 63 g ai/ha,0
same,phytotoxicity rating ECHCG,[22]; 250 g ai/ha,30
same,"Pre-emerge phytotoxicity rating (0-100), crop damage, RICE",[23]; 63 g ai/ha,50
same,"Pre-emerge phytotoxicity rating (0-100), crop damage, RICE",[23]; 250 g ai/ha,90
same,"Pre-emerge phytotoxicity rating (0-100), crop damage, CORN",[24]; 63 g ai/ha,35
same,"Pre-emerge phytotoxicity rating (0-100), crop damage, CORN",[24]; 250 g ai/ha,95

# — patent publication US6355799B1, “Substituted benzene compounds, process for their preparation, and herbicidal and defoliant compositions containing them” (ISK Americas Incorporated, priority 1997, dated 2002)
